From patent US10016378B2, “Compositions and methods for inhibiting intimal hyperplasia” (priority 2014, dated 2018)
“Also recorded” adds a separate entry of the source.

Tests used:
[1] = test system: human vascular SMCs; test: Cultured human vascular SMCs, PDGF stimulation / staurosporine apoptosis induction; format: cell-based; settings: VDAC closure/inhibition
Description: Proliferation and apoptosis leveled off after twenty eight (28) days when there was also no further progression of myointimal disease (FIGS. 1c, 1e). […] Human vascular SMCs were isolated from fresh hMA and characterized (Extended Data FIGS. 4e-4f). PDGF was then shown to induce ΔΨm hyperpolarization in cultured SMCs (Extended Data FIG. 4g), similar to the ΔΨm hyperpolarization previous observed in injured hMAs (FIG. 1f). Thus, mitochondrial ΔΨm hyperpolarization in myointimal SMCs and cultured SMCs coincided with the availability of PDGF.

[2] = test system: balloon-injured rat aortas; test: Balloon injury (abdominal aortic denudation) of Lewis rat aortas; format: in vivo, Lewis rats
Description: For example, abdominal aortic denudation in Lewis rats was performed to induce neointimal proliferation. […] The development of intimal hyperplasia was analyzed by histopathology. Confocal immunofluorescence microscopy and 3-dimensional reconstruction was performed to identify cell proliferation (Ki67) and apoptosis (TUNEL).

[3] = Side-effects in the various in vivo models

O=S(=O)(O)c1cc(N=C=S)ccc1C=Cc1ccc(N=C=S)cc1S(=O)(=O)O [DIDS]
SMC ΔΨm [1]: caused ΔΨm hyperpolarization; also recorded: increased
apoptosis ([1]; staurosporine-induced): rendered SMCs resistant; also recorded: reduced

Cc1ccc(NC(=O)c2ccc(CN3CCN(C)CC3)cc2)cc1Nc1nccc(-c2cccnc2)n1 [imatinib]
myointimal lesions ([2]; compared to untreated control 28 vessels): only minor lesions

O=C(O)C(Cl)Cl [DCA, dichloroacetate]
luminal obliteration (intimal hyperplasia) ([2]; DCA treatment for 28 days via drinking water (0.75 g/L), p=0.006 vs. untreated 28-day control (24.2±3.5%)): 7.9±6.3%
luminal obliteration (neointimal formation) ([2]; delayed DCA treatment starting on day 14, p=0.001 vs. untreated 28-day control): 3.5±2.9%
vessel re-endothelialization ([2]; in vivo, after mechanical endothelial denudation): does not impair; also recorded: did not prevent vessel re-endothelialization; also recorded: nor inhibited vessel re-endothelialization
side-effects or off-target effects [3]: didn't show any side-effects or off-target effects
